According to publication PMC12102032, “Chemoproteomics unveils Sofalcone targeting ribosomal proteins to inhibit protein synthesis in Staphylococcus aureus” (Molecular Biomedicine, 2025):

How the values were obtained:
[1] = target: T1, 50S ribosomal protein rplB (Staphylococcus aureus, UniProt P60430); experiment: microscale thermophoresis; also thermal shift of pure protein and competition with Sof-P labeling; format: binding
T1 construct: purified recombinant S. aureus rplB protein (His-Tag labeled)

[2] = target: T2, 50S ribosomal protein rplB (Staphylococcus aureus, UniProt P60430); experiment: in-gel fluorescence covalent labeling of purified recombinant protein (click chemistry), competed by Sof and IAA; format: binding
T2 construct: purified recombinant rplB protein
T2 sequence (P60430 1-277): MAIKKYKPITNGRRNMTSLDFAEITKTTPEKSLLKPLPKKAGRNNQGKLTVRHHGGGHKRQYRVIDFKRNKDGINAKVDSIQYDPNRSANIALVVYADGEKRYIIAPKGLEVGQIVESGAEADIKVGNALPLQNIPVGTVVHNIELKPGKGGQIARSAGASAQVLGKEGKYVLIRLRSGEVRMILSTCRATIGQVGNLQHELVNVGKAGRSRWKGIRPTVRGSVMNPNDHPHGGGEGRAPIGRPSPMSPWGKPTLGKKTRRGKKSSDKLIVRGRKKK

SMILES | Kd [1] [µM] | in-gel fluorescence covalent labeling of purified recombinant protein (click che) [2]
CC(C)=CCOc1ccc(/C=C/C(=O)c2ccc(OCC=C(C)C)cc2OCC(=O)O)cc1 [Sof, 2′-carboxymethoxy-4,4′-bis(3-methyl-2-butenyloxy) chalcone] | 1.27 | 
C#CCNC(=O)COc1cc(OCC=C(C)C)ccc1C(=O)/C=C/c1ccc(OCC=C(C)C)cc1 [Sof-P] |  | Sof-P labeling of recombinant rplB was concentration-dependent and was effectively competed by excess Sof or iodoacetamide (IAA)
